Experimental data: paper PMC9433317, “Discovery, structure and mechanism of a tetraether lipid synthase” (Nature, 2022)

Tests used:
[1] = biological target: T1, GDGT–MAS (MJ0619; Tes) (Methanocaldococcus jannaschii, UniProt Q58036); assay: X-ray crystal structure, […] Å; assay type: binding; settings: lipid-exchanged from M. acetivorans extract; with 5'-dAH and methionine; lipid identity assigned from electron density; second lipid site
T1 sequence (Q58036 1-506): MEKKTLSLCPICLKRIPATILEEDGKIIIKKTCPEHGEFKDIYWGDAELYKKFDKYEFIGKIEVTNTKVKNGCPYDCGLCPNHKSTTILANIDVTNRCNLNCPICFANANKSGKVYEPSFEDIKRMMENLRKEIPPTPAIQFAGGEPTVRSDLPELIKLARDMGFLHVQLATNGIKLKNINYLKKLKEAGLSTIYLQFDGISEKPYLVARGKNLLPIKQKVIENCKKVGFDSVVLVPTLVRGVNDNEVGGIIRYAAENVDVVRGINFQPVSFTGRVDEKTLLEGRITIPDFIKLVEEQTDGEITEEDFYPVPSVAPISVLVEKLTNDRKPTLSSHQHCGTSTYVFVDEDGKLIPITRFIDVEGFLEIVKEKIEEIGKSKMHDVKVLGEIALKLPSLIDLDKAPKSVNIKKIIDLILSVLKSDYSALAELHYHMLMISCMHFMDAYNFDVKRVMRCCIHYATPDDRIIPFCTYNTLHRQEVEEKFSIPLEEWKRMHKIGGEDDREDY

[2] = biological target: T1, GDGT–MAS (MJ0619; Tes); assay: X-ray crystal structures, […] Å and […] Å; assay type: binding; settings: with 5'-dAH and bound lipids; bidentate to the unique iron of the radical SAM [Fe4S4] cluster

| SMILES | X-ray crystal structure, 2.05 Å [1] | X-ray crystal structures, 1.85 Å and 2.05 Å [2] |
| --- | --- | --- |
| CC(C)CCC[C@@H](C)CCC[C@@H](C)CCC[C@@H](C)CCOC[C@@H](COP(=O)(O)O)OCC[C@H](C)CCC[C@H](C)CCC[C@H](C)CCCC(C)C [L1P, 2,3-di-O-phytanyl-sn-glycero-1-phosphate] | Unmodelled electron density in the active site was assigned as two archaeal lipid molecules |  |
| CSCC[C@H](N)C(=O)O [Met, methionine] |  | methionine coordinates to the unique iron in a bidentate manner |
